biological target: rhSYK (Homo sapiens, UniProt P43405); assay: biochemical

SMILES	IC50 [nM]
Cc1cc(Nc2nccc(C(F)(F)F)n2)cc(-c2cnc([C@]3(O)CC[C@@H](C(=O)Nc4cccc(CO)c4)CC3)s2)c1 [Example 119-73]	< 100
Cc1cc(Nc2nccc(C(F)(F)F)n2)cc(-c2cnc([C@]3(O)CC[C@@H](C(=O)NCc4ccccc4O)CC3)s2)c1 [Example 119-74]	< 100
Cc1cc(Nc2nccc(C(F)(F)F)n2)cc(-c2cnc([C@]3(O)CC[C@@H](C(=O)NCc4ccc(O)cc4)CC3)s2)c1 [Example 119-75]	< 100
Cc1cc(Nc2nccc(C(F)(F)F)n2)cc(-c2cnc([C@]3(O)CC[C@@H](C(=O)Nc4ccc(O)cc4O)CC3)s2)c1 [Example 119-76]	< 100
Cc1cc(Nc2nccc(C(F)(F)F)n2)cc(-c2cnc(C3(O)CCC(C(=O)NCc4ccc(F)cc4)CC3)s2)c1 (centres unmarked) [Example 119-77]	< 100
CC(=O)NCCCCNC(=O)[C@H]1CC[C@](O)(c2ncc(-c3cc(C)cc(Nc4nccc(C(F)(F)F)n4)c3)s2)CC1 [Example 119-81]	< 100
Cc1cc(Nc2nccc(C(F)(F)F)n2)cc(-c2cnc([C@]3(O)CC[C@@H](C(=O)Nc4ccc5[nH]ccc5c4)CC3)s2)c1 [Example 119-82]	< 100
Cc1cc(Nc2nccc(C(F)(F)F)n2)cc(-c2cnc([C@]3(O)CC[C@@H](C(=O)NCCCc4ccccc4)CC3)s2)c1 [Example 119-83]	< 100
Cc1cc(Nc2nccc(C(F)(F)F)n2)cc(-c2cnc(C3(O)CCC(C(=O)NCCOc4ccccc4)CC3)s2)c1 (centres unmarked) [Example 119-84]	< 100
Cc1cc(Nc2nccc(C(F)(F)F)n2)cc(-c2cnc([C@]3(O)CC[C@@H](C(=O)NCc4ccc(O)c(O)c4)CC3)s2)c1 [Example 119-86]	< 100
Cc1cc(Nc2nccc(C(F)(F)F)n2)cc(-c2cnc([C@]3(O)CC[C@@H](C(=O)NCc4ccc(Cl)cc4)CC3)s2)c1 [Example 119-87]	< 100
Cc1cc(Nc2nccc(C(F)(F)F)n2)cc(-c2cnc([C@]3(O)CC[C@@H](C(=O)NCCCN4CCCC4=O)CC3)s2)c1 [Example 119-88]	< 100
Cc1cc(Nc2nccc(C(F)(F)F)n2)cc(-c2cnc(C3(O)CCC(C(=O)NC4CCC(C(N)=O)CC4)CC3)s2)c1 (centres unmarked) [Example 119-90]	< 100
Cc1cc(Nc2nccc(C(F)(F)F)n2)cc(-c2cnc(C3(O)CCC(C(=O)NC4CCC(C(=O)O)CC4)CC3)s2)c1 (centres unmarked) [Example 119-91]	< 100
COC(=O)N1CCN(C(=O)C2CCC(O)(c3ncc(-c4cc(C)cc(Nc5nccc(C(F)(F)F)n5)c4)s3)CC2)CC1 (centres unmarked) [Example 119-92]	< 100
Cc1cc(Nc2nccc(C(F)(F)F)n2)cc(-c2cnc(C3(O)CCC(C(=O)NC4CCCc5ccccc54)CC3)s2)c1 (centres unmarked) [Example 119-93]	< 100
Cc1cc(Nc2nccc(C(F)(F)F)n2)cc(-c2cnc([C@]3(O)CC[C@@H](C(=O)NCc4cn5ccccc5n4)CC3)s2)c1 [Example 119-94]	< 100
Cc1cc(Nc2nccc(C(F)(F)F)n2)cc(-c2cnc(C3(O)CCC(C(=O)NC4c5ccccc5CC4O)CC3)s2)c1 (centres unmarked) [Example 119-95]	< 100
Cc1cc(Nc2nccc(C(F)(F)F)n2)cc(-c2cnc([C@]3(O)CC[C@@H](C(=O)NCc4cccc5c4C(=O)NC5)CC3)s2)c1 [Example 119-96]	< 100
Cc1cc(Nc2nccc(C(F)(F)F)n2)cc(-c2cnc([C@]3(O)CC[C@@H](C(=O)NCc4ccc5c(c4)C(=O)NC5)CC3)s2)c1 [Example 119-97]	< 100

SMILES	IC50 [nM]
Cc1cc(Nc2nccc(C(F)(F)F)n2)cc(-c2cnc([C@]3(O)CC[C@@H](C(=O)NCc4ccc5c(c4)CNC5=O)CC3)s2)c1 [Example 119-99]	< 100
Cc1cc(Nc2nccc(C(F)(F)F)n2)cc(-c2cnc([C@]3(O)CC[C@@H](C(=O)NCc4ccc(C(F)(F)F)cc4)CC3)s2)c1 [Example 119-100]	< 100
Cc1cc(Nc2nccc(C(F)(F)F)n2)cc(-c2cnc([C@]3(O)CC[C@@H](C(=O)N4CCC(Cc5ccccc5)CC4)CC3)s2)c1 [Example 119-102]	100 to 1000
Cc1cc(Nc2nccc(C(F)(F)F)n2)cc(-c2cnc([C@]3(O)CC[C@@H](C(=O)NCc4ccc5c(c4)NC(=O)CC5)CC3)s2)c1 [Example 119-103]	< 100
Cc1cc(Nc2nccc(C(F)(F)F)n2)cc(-c2cnc([C@]3(O)CC[C@@H](C(=O)NCc4ccc(-n5cc(CO)cn5)cc4)CC3)s2)c1 [Example 119-105]	< 100
Cc1cc(Nc2nccc(C(F)(F)F)n2)cc(-c2cnc(C3(O)CCC(C(=O)NCc4ccc(CC5COC(=O)N5)cc4)CC3)s2)c1 (centres unmarked) [Example 119-106]	< 100
Cc1cc(Nc2nccc(C)n2)cc(-c2cnc(C3(O)CCC(C(=O)NCC#N)C(C)C3)s2)c1 (centres unmarked) [Example 119-108]	< 100
Cc1cc(Nc2nccc(C(C)(C)C)n2)cc(-c2cnc(C3(O)CCC(C(N)=O)C(C)C3)s2)c1 (centres unmarked) [Example 119-109]	< 100
Cc1cc(Nc2nccc(OC(C)C)n2)cc(-c2cnc(C3(O)CCC(C(N)=O)C(C)C3)s2)c1 (centres unmarked) [Example 119-110]	< 100
Cc1cc(Nc2nccc(C(C)C)n2)cc(-c2cnc(C3(O)CCC(C(=O)NCC#N)C(C)C3)s2)c1 (centres unmarked) [Example 119-113]	< 100
Cc1cc(Nc2nccc(C)n2)cc(-c2cnc(C3(O)CCC(C(=O)NCc4cccnc4)C(C)C3)s2)c1 (centres unmarked) [Example 119-114]	< 100
Cc1cc(Nc2nccc(C(C)C)n2)cc(-c2cnc(C3(O)CCC(C(=O)NCc4cccnc4)C(C)C3)s2)c1 (centres unmarked) [Example 119-115]	< 100
COc1ccnc(Nc2cc(C)cc(-c3cnc(C4(O)CCC(C(N)=O)C(C)(C)C4)s3)c2)n1 (centres unmarked) [Example 119-117]	< 100
Cc1cc(Nc2nccc(C3CC3)n2)cc(-c2cnc(C3(O)CCC(C(N)=O)C(C)(C)C3)s2)c1 (centres unmarked) [Example 119-118]	< 100
Cc1cc(Nc2nccc(C(C)C)n2)cc(-c2cnc(C3(O)CCC(C(N)=O)C(C)(C)C3)s2)c1 (centres unmarked) [Example 119-119]	< 100
Cc1cc(Nc2nccc(C(C)O)n2)cc(-c2cnc(C3(O)CCC(C(N)=O)C(C)(C)C3)s2)c1 (centres unmarked) [Example 119-120]	< 100
Cc1cc(Nc2nccc(C(C)F)n2)cc(-c2cnc(C3(O)CCC(C(N)=O)C(C)(C)C3)s2)c1 (centres unmarked) [Example 119-122]	< 100
Cc1cc(Nc2nccc(C(C)(C)C)n2)cc(-c2cnc(C3(O)CCC(C(N)=O)C(C)(C)C3)s2)c1 (centres unmarked) [Example 119-125]	< 100
Cc1cc(Nc2nccc(C(C)(C)O)n2)cc(-c2cnc(C3(O)CCC(C(N)=O)C(C)(C)C3)s2)c1 (centres unmarked) [Example 119-127]	< 100

Results, then the molecule that gave them:

IC50 [nM]	SMILES
< 100	Cc1cc(Nc2nccc(C(F)(F)F)n2)cc(-c2cnc([C@]3(O)CC[C@@H](C(=O)Nc4cccnc4)CC3)s2)c1 [Example 119-36]
< 100	Cc1cc(Nc2nccc(C(F)(F)F)n2)cc(-c2cnc(C3(O)CCC(C(=O)N4CCC(C#N)C4)CC3)s2)c1 (centres unmarked) [Example 119-37]
< 100	Cc1cc(Nc2nccc(C(F)(F)F)n2)cc(-c2cnc(C3(O)CCC(C(=O)NCc4cc[nH]n4)CC3)s2)c1 (centres unmarked) [Example 119-39]
< 100	CCN(CCC#N)C(=O)C1CCC(O)(c2ncc(-c3cc(C)cc(Nc4nccc(C(F)(F)F)n4)c3)s2)CC1 (centres unmarked) [Example 119-40]
< 100	Cc1cc(Nc2nccc(C(F)(F)F)n2)cc(-c2cnc(C3(O)CCC(C(=O)NCc4cocn4)CC3)s2)c1 (centres unmarked) [Example 119-42]
< 100	Cc1cc(Nc2nccc(C(F)(F)F)n2)cc(-c2cnc(C3(O)CCC(C(=O)NC4CCCCC4)CC3)s2)c1 (centres unmarked) [Example 119-44]
< 100	Cc1cc(Nc2nccc(C(F)(F)F)n2)cc(-c2cnc([C@]3(O)CC[C@@H](C(=O)N4CCN(C)CC4)CC3)s2)c1 [Example 119-46]
< 100	Cc1cc(Nc2nccc(C(F)(F)F)n2)cc(-c2cnc([C@]3(O)CC[C@@H](C(=O)N4CCC(O)CC4)CC3)s2)c1 [Example 119-47]
< 100	CC(=O)NCCNC(=O)[C@H]1CC[C@](O)(c2ncc(-c3cc(C)cc(Nc4nccc(C(F)(F)F)n4)c3)s2)CC1 [Example 119-49]
< 100	Cc1cc(Nc2nccc(C(F)(F)F)n2)cc(-c2cnc([C@]3(O)CC[C@@H](C(=O)N(CCO)CCO)CC3)s2)c1 [Example 119-50]
< 100	Cc1cc(Nc2nccc(C(F)(F)F)n2)cc(-c2cnc([C@]3(O)CC[C@@H](C(=O)NCc4ccccc4)CC3)s2)c1 [Example 119-51]
< 100	Cc1cc(Nc2nccc(C(F)(F)F)n2)cc(-c2cnc([C@]3(O)CC[C@@H](C(=O)NCc4ccccn4)CC3)s2)c1 [Example 119-54]
< 100	Cc1cc(Nc2nccc(C(F)(F)F)n2)cc(-c2cnc([C@]3(O)CC[C@@H](C(=O)Nc4ccc(O)cc4)CC3)s2)c1 [Example 119-55]
< 100	Cc1cc(Nc2nccc(C(F)(F)F)n2)cc(-c2cnc([C@]3(O)CC[C@@H](C(=O)Nc4ccccc4O)CC3)s2)c1 [Example 119-56]
< 100	Cc1cc(Nc2nccc(C(F)(F)F)n2)cc(-c2cnc(C3(O)CCC(C(=O)N4CCC(C#N)CC4)CC3)s2)c1 (centres unmarked) [Example 119-59]
< 100	Cc1cc(Nc2nccc(C(F)(F)F)n2)cc(-c2cnc(C3(O)CCC(C(=O)N4CCCC(C#N)C4)CC3)s2)c1 (centres unmarked) [Example 119-60]
< 100	Cc1cc(Nc2nccc(C(F)(F)F)n2)cc(-c2cnc([C@]3(O)CC[C@@H](C(=O)Nc4ccc(F)cc4)CC3)s2)c1 [Example 119-62]
< 100	Cc1cc(Nc2nccc(C(F)(F)F)n2)cc(-c2cnc([C@]3(O)CC[C@@H](C(=O)NCc4cccs4)CC3)s2)c1 [Example 119-63]
< 100	CC(=O)N(C)CCNC(=O)C1CCC(O)(c2ncc(-c3cc(C)cc(Nc4nccc(C(F)(F)F)n4)c3)s2)CC1 (centres unmarked) [Example 119-68]
< 100	Cc1cc(Nc2nccc(C(F)(F)F)n2)cc(-c2cnc(C3(O)CCC(C(=O)N(C)Cc4ccccc4)CC3)s2)c1 (centres unmarked) [Example 119-69]
< 100	Cc1cc(Nc2nccc(C(F)(F)F)n2)cc(-c2cnc(C3(O)CCC(C(=O)NCCc4ccccc4)CC3)s2)c1 (centres unmarked) [Example 119-70]
< 100	Cc1cc(Nc2nccc(C(F)(F)F)n2)cc(-c2cnc([C@]3(O)CC[C@@H](C(=O)NCc4cccc(O)c4)CC3)s2)c1 [Example 119-71]
< 100	Cc1cc(Nc2nccc(C(F)(F)F)n2)cc(-c2cnc([C@]3(O)CC[C@@H](C(=O)Nc4ccc(CO)cc4)CC3)s2)c1 [Example 119-72]

Source: patent US8551984B2, “Aminopyrimidines as SYK inhibitors” (Merck Sharp & Dohme Corp., priority 2009, dated 2013)
